# Experiments:
# [1] = tested on: NOD mice; test: antigen-primed DTH response (KLH footpad swelling); format: in vivo
# Procedure: The next day, the mice were immunized with KLH in 50% CFA at the base of their tail. One week later, the mice were challenged with KLH in PBS in their right footpad, while the left footpad received ovalbumin in PBS as a control. Footpad swelling was expressed as the average size increase of the KLH injected footpad compared to the control footpad±SD (n=5 mice/group, *p<0.005, **p<0.002, ***p<0.001).
# The next day, the mice were immunized with 100 μg keyhole limpet hemocyanin (KLH, Sigma), a prototypic foreign antigen, in 50% CFA at the base of their tail. One week later, the mice were challenged with KLH (100 μg in 25 μl PBS) in their right footpad, while the left footpad received ovalbumin (100 μg in […] PBS) as a control. Both hind feet were measured before injection and at 24, 48, 72 and 96 hrs post injection using a monostat caliper. Footpad swelling was expressed as the average size increase (in millimeters) of the KLH-injected footpad compared to the control ovalbumin-injected footpad of each animal. The measurements were conducted in a blinded fashion on coded animals.
# [2] = tested on: CTLL-2 cells; test: control CTLL-2 cell response to recombinant murine IL-2; format: cell-based, mouse; conditions: 10 μM-10 mM
# Procedure: (§1) Mice (6-8 weeks in age) were injected with 20 nM GADp35 peptide in 50% complete Freund's adjuvant (CFA, Gibco) in their hind food-pad. […] The supernatant of the cultured cells was harvested and the activity of IL-2 was measured using the IL-2-dependent cell line CTLL-2. Recombinant mouse IL-2 (Genzyme) was used as a standard.
# [3] = tested on: splenic T cell; test: anti-CD3 stimulated splenic T cell proliferation (3H-thymidine incorporation); format: cell-based, Balb/c mice
# Procedure: During the last 8 hours of incubation, ^3H-thymidine (1 μCi/well) was added into each well to determine T cell proliferation. […] The background level of ^3H-thymidine incorporation in medium alone was 1,965-2,400 cpm. Groups of 5-6 mice were tested in two independent experiments.
# The data are presented as the mean percent ^3H-thymidine incorporation relative to the positive control from groups of 5-6 mice which were tested in 2-3 independent experiments.
# [4] = tested on: lymph node mononuclear cells from GADp35 immunized NOD mice; test: IL-2 production by antigen stimulated T cells (CTLL proliferation readout); format: cell-based; conditions: GADp35 at 2, 7 and 20 micromolar; 36 hours; different concentrations of GABA
# Procedure: The IL-2 activity in supernatant was determined by IL-2-dependent CTLL proliferation. The data are expressed as IL-2 units/ml±SD.
# as §1
# [5] = tested on: NOD-scid mice; test: adoptive transfer of IDDM to NOD-scid mice; format: in vivo; conditions: 600 μg/day
# Source text: Ten to twenty million splenocytes from NOD mice with recent onset of IDDM were intravenously injected into recipient 6-week-old mice. […] (n=12 for both groups).
# A NOD strain congenic for the severe combined immunodeficiency (scid) mutation developed to study diabetogenesis in NOD mice was used in the adoptive transfer experiment. Neither insulitis nor diabetes is observed in the NOD-scid mice because they lack functional lymphocytes. This ensured that the T cells responsible for diabetes in recipient NOD-scid mice were derived from the diabetic donor NOD mice. Only female NOD mice were used since they incur a higher incidence of IDDM than males.
# The control mice received a placebo pellet instead the GABA pellet. The mice were monitored for diabetes onset by testing their urine glucose levels with Tes-tape and blood glucose levels with a glucometer. The onset of IDDM is defined as two consecutive blood glucose readings of over 300 mg/dl.
# [6] = tested on: mononuclear splenic cells; test: T cell response to PMA and ionomycin; format: cell-based, mice; conditions: 10 μM-10 mM
# [7] = tested on: lymph node T cell; test: antigen-primed lymph node T cell proliferative recall response (3H-thymidine incorporation); format: cell-based, NOD, Balb/c and AKR mice; conditions: for immuno-inhibitory effect of GABA on co-incubation with the compound: different (also high) concentrations of GABA, GADp35; for immuno-inhibitory effect of GABA on co-incubation with the compound / effect on GABA-mediated inhibition of T cell proliferation: co-incubation; for effect on GABA-mediated inhibition of T cell proliferation: 1 μM-500 μM
# Procedure: NOD, Balb/c and AKR mice were immunized with an immunogenic foreign (HEL) or self (GAD) peptide in 50% CFA. […] Groups of 5 mice were tested in two independent experiments.
# Lymph node mononuclear cells from GADp35 primed NOD mice were pretreated with different concentrations of muscimol or baclofen in vitro, and then challenged with 7 μM GADp35 to stimulate antigen specific T cell proliferation. The data are presented as the per cent ^3H-thymidine incorporation relative to control peptid-estimulated cells without muscimol or baclofen treatment. Lymph node mononuclear cells in medium alone served as negative controls. […] Groups of 5-6 mice were tested in two independent experiments.
# Groups of 5 mice were tested in three independent experiments.
# Lymph node mononuclear cells from NOD mice which were immunized with GADp35 were cultured with bicuculline, RU5135 or picrotoxin. […] The data are expressed as the per cent ^3H-thymidine incorporation relative to control antigen-stimulated cells without any drug treatment. […] Groups of 5-6 mice were tested in three independent experiments.
# Three strains of mice with different MHC class II alleles were immunized with an immunogenic peptide from hen egg lysozyme (HEL). […] Mice were injected with 20 nM peptide in 50% complete Freund's adjuvant (CFA, Gibco) in their hind food-pad.
# GAD peptides were selected from an overlapping set of peptides which span the GAD molecule (Atkinson et al. (1994) J. Clin. Invest. 94:2125-2129). GAD65 peptide 35 (GADp35) contains a self-antigen determinant for NOD (H-2^NOD; Taconic Farms) and BALB/c (H-2^d) mice (Jackson Laboratory) and GAD peptide 25 (GADp25) contains a self-antigen determinant for AKR (H-2^k) mice (Jackson Laboratory; Kaufman et al. (1993) Nature 366:69-72). Following immunization with 20 nM of immunogenic GAD peptide in 50% complete Freund's adjuvant (CFA, Gibco), T cell proliferation was assayed as described above.
# [8] = 21-day slow release GABA pellet
# [9] = NOD, Balb/c and AKR mice, 7 μM peptide, different concentrations of GABA
molecule,measurement,setting,value
"NCCCC(=O)O [GABA, γ-Aminobutyric acid]",signs of toxicity,[1]; mice implanted with GABA-releasing pellets (600 μg GABA/day),no obvious signs of toxicity
same,less footpad swelling in response to KLH than placebo-treated mice,"[1]; pellet releasing 600 μg/day GABA, under the skin, 24-72 hour response period, p<0.005",30-50%
same,CTLL-2 cell response to recombinant murine IL-2 on addition of compound,[2],unaffected
same,impact on T cell survival,[3]; in vitro culture,little impact on T cell survival
same,T cell proliferation with the compound itself (without anti-CD3),[3]; without anti-CD3,failed to stimulate T cell proliferation
same,antigen-induced IL-2 secretion,[4],reduced in a dose-dependent manner
same,diabetes incidence after adoptive transfer,[5]; [8],significantly reduced diabetes incidence
same,onset of IDDM beginning at,[5]; [8],4 weeks
same,onset of IDDM in mice that developed it,[5]; [8],delayed onset
same,onset of IDDM beginning at,[5]; 60-day slow release GABA pellet,7 weeks
same,effect on T cell response to PMA and ionomycin,[6],did not significantly affect
same,T cell recall proliferation to foreign antigen (HEL peptides),[7]; [9],inhibit T cell proliferation to the immunogens in a dose-dependent manner
same,T cell recall proliferation to self-antigen (GAD peptides),[7]; [9],inhibit proliferative T cell responses to the injected antigen in all three strains of mice in a dose-dependent manner
C[C@]12CC[C@@H](O)C[C@H]1CC[C@@H]1[C@@H]2C(=O)C[C@]2(C)N=C(N)C[C@@H]12 [RU5315],immuno-inhibitory effect of GABA on co-incubation with the compound,[7],greatly reduced
NCC(CC(=O)O)c1ccc(Cl)cc1 (centres unmarked) [baclofen],effect on T cell proliferation,[7]; 10 μM-10 mM,little effect
same,interference with the immuno-suppressive action of muscimol,"[7]; 10 μM-10 mM, with muscimol",did not interfere
N[C@@H](CCC(=O)O)C(=O)O [glutamic acid],"effect on T cell proliferative responses, alone or co-incubated with GABA",[7]; 10 μM-10 mM,little effect
NCc1cc(=O)[nH]o1 [muscimol],anti-CD3 induced T cell proliferation,[3]; different concentrations,inhibit in a dose-dependent manner
same,reduction of antigen primed T cell responses,"[7]; 300 μM, GADp35 primed NOD mice",approximately 40%
same,antigen-induced T cell proliferation,"[7]; different concentrations, 7 μM GADp35",inhibit in a dose-dependent manner
O=C(O)C1CCCNC1 (centres unmarked) [nipecotic acid],effect on GABA-mediated inhibition of T cell proliferation,[7],did not significantly affect
CCCC(C)C1(CC)C(=O)NC(=O)NC1=O (centres unmarked) [pentobarbital],effect on GABA inhibition of T cell responses,"[7]; 3 μM with different concentrations of GABA, 7 μM GADp35, 96 hours",potentiated the actions of GABA
same,impact of compound without GABA on antigen-primed T cell proliferation,"[7]; 3 μM, without GABA",little impact
NCCC(=O)O [β-alanine],"effect on T cell proliferative responses, alone or co-incubated with GABA",[7]; 10 μM-10 mM,little effect
C=CC(N)CCC(=O)O (centres unmarked) [γ-vinyl-GABA],effect on GABA-mediated inhibition of T cell proliferation,[7],did not significantly affect
picrotoxin,immuno-inhibitory effect of GABA on co-incubation with the compound,[7],almost abolished

# From patent US6350769B1 (The Regents of the University of California, priority 1999, dated 2002)
